Laboratory results: patent publication US20060069132A1, “Azolecarboxamide herbicides” (priority 2004, published 2006)

What was measured:
pigweed = assay: Test C pre-/postemergence herbicide test; format: in vivo, Amaranthus retroflexus; conditions: for Plant response rating, Pigweed / Plant response rating (0 = no effect, 100 = complete control), Pigweed: preemergence
Procedure, shortened: (§1)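 Preemergence: seeds planted and treated with compound in non-phytotoxic solvent with surfactant; postemergence: plants at 2 to 18 cm (1- to 4-leaf stage) sprayed likewise. Kept in greenhouse 12 to 14 days, then visually rated against controls, 0 (no effect) to 100 (complete control).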

[1] = tested on: common (oilseed) sunflower; assay: Test C pre-/postemergence herbicide test; format: in vivo, Helianthus annuus; conditions: for Plant response rating, Sunflower / Plant response rating (0 = no effect, 100 = complete control), Sunflower: preemergence
Procedure, shortened: as §1

kochia = assay: Test C pre-/postemergence herbicide test; format: in vivo, Kochia scoparia; conditions: for Plant response rating, Kochia / Plant response rating (0 = no effect, 100 = complete control), Kochia: preemergence
Procedure, shortened: as §1

eastern black nightshade = assay: Test C pre-/postemergence herbicide test; format: in vivo, Solanum ptycanthum; conditions: for Plant response rating, Nightshade / Plant response rating (0 = no effect, 100 = complete control), Nightshade: preemergence
Procedure, shortened: as §1

woolly cupgrass = assay: Test C pre-/postemergence herbicide test; format: in vivo, Eriochloa villosa; conditions: for Plant response rating, Cupgrass, Woolly / Plant response rating (0 = no effect, 100 = complete control), Cupgrass, Woolly: preemergence
Procedure, shortened: as §1

giant foxtail = assay: Test C pre-/postemergence herbicide test; format: in vivo, Setaria faberi; conditions: for Plant response rating, Foxtail, Giant / Plant response rating (0 = no effect, 100 = complete control), Foxtail, Giant: preemergence
Procedure, shortened: as §1

morningglory = assay: Test C pre-/postemergence herbicide test; format: in vivo, Ipomoea coccinea; design: key to Plant response rating, Morningglory: 0 = no effect, 100 = complete control; conditions: for Plant response rating, Morningglory / Plant response rating (0 = no effect, 100 = complete control), Morningglory: preemergence
Procedure, shortened: as §1

barnyardgrass = assay: Test C flooded paddy test; format: in vivo, Echinochloa crus-galli; conditions: for Plant response rating, Barnyardgrass: 500 g ai/ha, visual rating after 12 to 14 days
Procedure, shortened: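 Scoring by eye, 12–14 days post-treatment, greenhouse-held plants vs. controls; 0 no effect, 100 complete control. Sprayed at 1–4 leaves (2–18 cm); paddy barnyardgrass at 2 leaves, flooded.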

[2] = 500 g ai/ha, scale 0 to 100 (0 no effect, 100 complete control), visual, 12 to 14 days
[3] = 62 g ai/ha, scale 0 to 100 (0 no effect, 100 complete control)
[4] = 125 g ai/ha, scale 0 to 100 (0 no effect, 100 complete control)
[5] = 250 g ai/ha, scale of 0 to 100, 0 is no effect, 100 is complete control
[6] = scale 0 to 100 (0 no effect, 100 complete control)
[7] = 125 g ai/ha, scale 0 (no effect) to 100 (complete control), visual, 12 to 14 days
[8] = Preemergence, 500 g ai/ha, scale 0 to 100, 0 no effect, 100 complete control
[9] = 250 g ai/ha, scale 0 to 100 (0 no effect, 100 complete control), visual, 12 to 14 days

SMILES: CCC1=NN(C(C)(C)C)CC1C(=O)Nc1cc(C(=O)N2CC=CC2)ccc1F (racemic) [Compound 340]
- Plant response rating, Pigweed (pigweed; 62 g ai/ha, scale 0 to 100): 70
- Plant response rating (0 = no effect, 100 = complete control), Pigweed (pigweed; 125 g ai/ha): 85
- Plant response rating, Pigweed (pigweed; 250 g ai/ha, scale 0-100): 100
- Plant response rating, Pigweed (pigweed; [2]): 100
- Plant response rating, Sunflower ([1]; 62 g ai/ha, scale 0 to 100): 0
- Plant response rating (0 = no effect, 100 = complete control), Sunflower ([1]; 125 g ai/ha): 0
- Plant response rating, Sunflower ([1]; 250 g ai/ha, scale 0-100): 0
- Plant response rating, Sunflower [1, 2]: 5
- Plant response rating, Kochia (kochia; 62 g ai/ha, scale 0 to 100): 10
- Plant response rating (0 = no effect, 100 = complete control), Kochia (kochia; 125 g ai/ha): 20
- Plant response rating, Kochia (kochia; 250 g ai/ha, scale 0-100): 90
- Plant response rating, Kochia (kochia; [2]): 100
- Plant response rating, Nightshade (eastern black nightshade; 62 g ai/ha, scale 0 to 100): 60
- Plant response rating (0 = no effect, 100 = complete control), Nightshade (eastern black nightshade; 125 g ai/ha): 90
- Plant response rating, Nightshade (eastern black nightshade; 250 g ai/ha, scale 0-100): 100
- Plant response rating, Nightshade (eastern black nightshade; [2]): 100
- Plant response rating, Cupgrass, Woolly (woolly cupgrass; 62 g ai/ha, scale 0 to 100): 0
- Plant response rating (0 = no effect, 100 = complete control), Cupgrass, Woolly (woolly cupgrass; 125 g ai/ha): 20
- Plant response rating, Cupgrass, Woolly (woolly cupgrass; 250 g ai/ha, scale 0-100): 45
- Plant response rating, Cupgrass, Woolly (woolly cupgrass; [2]): 75
- Plant response rating, Foxtail, Giant (giant foxtail; 62 g ai/ha, scale 0 to 100): 0
- Plant response rating (0 = no effect, 100 = complete control), Foxtail, Giant (giant foxtail; 125 g ai/ha): 10
- Plant response rating, Foxtail, Giant (giant foxtail; 250 g ai/ha, scale 0-100): 60
- Plant response rating, Foxtail, Giant (giant foxtail; [2]): 85
- Plant response rating, Morningglory (morningglory; 62 g ai/ha, scale 0 to 100): 0
- Plant response rating (0 = no effect, 100 = complete control), Morningglory (morningglory; 125 g ai/ha): 5
- Plant response rating, Morningglory (morningglory; 250 g ai/ha, scale 0-100): 10
- Plant response rating, Morningglory (morningglory; [2]): 50
- Barnyardgrass plant response rating (barnyardgrass; [3]): 20
- Barnyardgrass plant response rating (barnyardgrass; [4]): 50
- Barnyardgrass plant response rating (barnyardgrass; [5]): 60
- Plant response rating, Barnyardgrass (barnyardgrass; [6]): 70

SMILES: CCc1nn(C(C)(C)CC)nc1C(=O)Nc1cccc(C(=O)N(C)C)c1 [Compound 372]
- Plant response rating, Pigweed (pigweed; 62 g ai/ha, scale 0 to 100): 85
- Plant response rating (0 = no effect, 100 = complete control), Pigweed (pigweed; 125 g ai/ha): 95
- Plant response rating, Pigweed (pigweed; 250 g ai/ha, scale 0-100): 100
- Plant response rating, Pigweed (pigweed; [2]): 100
- Plant response rating, Sunflower ([1]; 62 g ai/ha, scale 0 to 100): 0
- Plant response rating (0 = no effect, 100 = complete control), Sunflower ([1]; 125 g ai/ha): 0
- Plant response rating, Sunflower ([1]; 250 g ai/ha, scale 0-100): 0
- Plant response rating, Sunflower [1, 2]: 60
- Plant response rating, Kochia (kochia; 62 g ai/ha, scale 0 to 100): 100
- Plant response rating (0 = no effect, 100 = complete control), Kochia (kochia; 125 g ai/ha): 100
- Plant response rating, Kochia (kochia; 250 g ai/ha, scale 0-100): 100
- Plant response rating, Kochia (kochia; [2]): 100
- Plant response rating, Nightshade (eastern black nightshade; 62 g ai/ha, scale 0 to 100): 85
- Plant response rating (0 = no effect, 100 = complete control), Nightshade (eastern black nightshade; 125 g ai/ha): 95
- Plant response rating, Nightshade (eastern black nightshade; 250 g ai/ha, scale 0-100): 100
- Plant response rating, Nightshade (eastern black nightshade; [2]): 100
- Plant response rating, Cupgrass, Woolly (woolly cupgrass; 62 g ai/ha, scale 0 to 100): 50
- Plant response rating (0 = no effect, 100 = complete control), Cupgrass, Woolly (woolly cupgrass; 125 g ai/ha): 60
- Plant response rating, Cupgrass, Woolly (woolly cupgrass; 250 g ai/ha, scale 0-100): 70
- Plant response rating, Cupgrass, Woolly (woolly cupgrass; [2]): 100
- Plant response rating, Foxtail, Giant (giant foxtail; 62 g ai/ha, scale 0 to 100): 70
- Plant response rating (0 = no effect, 100 = complete control), Foxtail, Giant (giant foxtail; 125 g ai/ha): 85
- Plant response rating, Foxtail, Giant (giant foxtail; 250 g ai/ha, scale 0-100): 90
- Plant response rating, Foxtail, Giant (giant foxtail; [2]): 90
- Plant response rating, Morningglory (morningglory; 62 g ai/ha, scale 0 to 100): 0
- Plant response rating (0 = no effect, 100 = complete control), Morningglory (morningglory; 125 g ai/ha): 5
- Plant response rating, Morningglory (morningglory; 250 g ai/ha, scale 0-100): 40
- Plant response rating, Morningglory (morningglory; [2]): 80
- Barnyardgrass plant response rating (barnyardgrass; [3]): 65
- Barnyardgrass plant response rating (barnyardgrass; [4]): 70
- Barnyardgrass plant response rating (barnyardgrass; [5]): 75
- Plant response rating, Barnyardgrass (barnyardgrass; [6]): 80

SMILES: CCNC(=O)c1ccc(F)c(N(C(C)=O)C(=O)c2cc(C(C)(C)C)nn2CC)c1 [Compound 399]
- Plant response rating, Pigweed (pigweed; 62 g ai/ha, scale 0 to 100): 100
- Plant response rating (0 = no effect, 100 = complete control), Pigweed (pigweed; 125 g ai/ha): 100
- Plant response rating, Pigweed (pigweed; [2]): 100
- Plant response rating, Sunflower ([1]; 62 g ai/ha, scale 0 to 100): 0
- Plant response rating (0 = no effect, 100 = complete control), Sunflower ([1]; 125 g ai/ha): 0
- Plant response rating, Sunflower [1, 2]: 35
- Plant response rating (0 = no effect, 100 = complete control), Kochia (kochia; 125 g ai/ha): 80
- Plant response rating, Kochia (kochia; 250 g ai/ha, scale 0-100): 100
- Plant response rating, Kochia (kochia; [2]): 100
- Plant response rating, Nightshade (eastern black nightshade; 62 g ai/ha, scale 0 to 100): 95
- Plant response rating (0 = no effect, 100 = complete control), Nightshade (eastern black nightshade; 125 g ai/ha): 100
- Plant response rating, Nightshade (eastern black nightshade; [2]): 100
- Plant response rating, Cupgrass, Woolly (woolly cupgrass; 62 g ai/ha, scale 0 to 100): 45
- Plant response rating (0 = no effect, 100 = complete control), Cupgrass, Woolly (woolly cupgrass; 125 g ai/ha): 65
- Plant response rating, Cupgrass, Woolly (woolly cupgrass; 250 g ai/ha, scale 0-100): 80
- Plant response rating, Cupgrass, Woolly (woolly cupgrass; [2]): 95
- Plant response rating, Foxtail, Giant (giant foxtail; 62 g ai/ha, scale 0 to 100): 95
- Plant response rating (0 = no effect, 100 = complete control), Foxtail, Giant (giant foxtail; 125 g ai/ha): 100
- Plant response rating, Foxtail, Giant (giant foxtail; 250 g ai/ha, scale 0-100): 100
- Plant response rating, Foxtail, Giant (giant foxtail; [2]): 100
- Plant response rating, Morningglory (morningglory; 62 g ai/ha, scale 0 to 100): 15
- Plant response rating (0 = no effect, 100 = complete control), Morningglory (morningglory; 125 g ai/ha): 25
- Plant response rating, Morningglory (morningglory; [2]): 75
- Barnyardgrass plant response rating (barnyardgrass; [3]): 50
- Barnyardgrass plant response rating (barnyardgrass; [4]): 65
- Barnyardgrass plant response rating (barnyardgrass; [5]): 85
- Plant response rating, Barnyardgrass (barnyardgrass; [6]): 90

SMILES: CCNC(=O)c1ccnc(NC(=O)c2cc(C(C)(C)C)nn2CC)c1 [Compound 152]
- Plant response rating, Pigweed (pigweed; 62 g ai/ha, scale 0 to 100): 85
- Plant response rating, Pigweed (pigweed; [7]): 100
- Pigweed plant response rating (pigweed; [8]): 100
- Plant response rating, Sunflower ([1]; 62 g ai/ha, scale 0 to 100): 0
- Plant response rating, Sunflower [1, 7]: 10
- Sunflower plant response rating [1, 8]: 70
- Plant response rating, Kochia (kochia; 62 g ai/ha, scale 0 to 100): 100
- Plant response rating, Kochia (kochia; [7]): 100
- Kochia plant response rating (kochia; [8]): 100
- Plant response rating, Nightshade (eastern black nightshade; 62 g ai/ha, scale 0 to 100): 80
- Plant response rating, Nightshade (eastern black nightshade; [7]): 90
- Nightshade plant response rating (eastern black nightshade; [8]): 100
- Plant response rating, Cupgrass, Woolly (woolly cupgrass; 62 g ai/ha, scale 0 to 100): 40
- Plant response rating, Cupgrass, Woolly (woolly cupgrass; [7]): 50
- Plant response rating, Cupgrass, Woolly (woolly cupgrass; [9]): 100
- Cupgrass, Woolly plant response rating (woolly cupgrass; [8]): 100
- Plant response rating, Foxtail, Giant (giant foxtail; 62 g ai/ha, scale 0 to 100): 70
- Plant response rating, Foxtail, Giant (giant foxtail; [7]): 100
- Plant response rating, Foxtail, Giant (giant foxtail; [9]): 100
- Foxtail, Giant plant response rating (giant foxtail; [8]): 100
- Plant response rating, Morningglory (morningglory; 62 g ai/ha, scale 0 to 100): 20
- Plant response rating, Morningglory (morningglory; [7]): 80
- Morningglory plant response rating (morningglory; [8]): 100
- Barnyardgrass plant response rating (barnyardgrass; [3]): 40
- Barnyardgrass plant response rating (barnyardgrass; 125 g ai/ha, scale of 0 to 100, 0 is no effect, 100 is complete control): 75
- Barnyardgrass plant response rating (barnyardgrass; [5]): 75
- Plant response rating, Barnyardgrass (barnyardgrass; [6]): 85
